Numbering of substitutions follows the chain as printed. Like-named read-outs stand apart in the source and are kept apart here.
How the values were obtained:
mutant MGL = biological target: T1, mutant MGL (Homo sapiens, UniProt Q99685, L169S/L176S); test: MGL ThermoFluor assay - mutant; format: binding
T1 sequence (Q99685 1-303 L169S/L176S): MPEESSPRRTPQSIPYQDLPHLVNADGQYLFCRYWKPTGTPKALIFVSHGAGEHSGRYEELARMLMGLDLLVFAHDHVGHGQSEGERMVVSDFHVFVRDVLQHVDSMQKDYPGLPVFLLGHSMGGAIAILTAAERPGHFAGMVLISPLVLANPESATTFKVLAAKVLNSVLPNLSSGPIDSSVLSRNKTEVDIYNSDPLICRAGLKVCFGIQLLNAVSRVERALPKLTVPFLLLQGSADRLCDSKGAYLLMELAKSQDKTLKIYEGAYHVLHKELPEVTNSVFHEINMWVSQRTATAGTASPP

[1] = biological target: T2, purified wild type MGL (wt-MGLL 6H-11-313) (Homo sapiens, UniProt Q99685)
T2 sequence (Q99685 1-303): T1 sequence (Q99685 1-303 L169S/L176S) with S169L, S176L

[2] = ThermoFluor, compound concentration measured by qNMR, read-out: MGL mutant ThermoFluor qKd (using qNMR conc.)
[3] = ThermoFluor, compound concentration measured by qNMR, read-out: MGL mutant ThermoFluor qKd (μM) (using qNMR conc.)
[4] = ThermoFluor concentration-response, read-out: MGL mutant ThermoFluor Kd
[5] = ThermoFluor thermal stability binding assay, read-out: MGL mutant ThermoFluor Kd
[6] = compound concentration measured by qNMR, read-out: MGL mutant ThermoFluor qKd (using qNMR conc.)

SMILES	IC50 [1]	Kd (mutant MGL; [4])	further results
O=C(c1cscn1)N1CCN(C2CN(C(=O)c3[nH]c4nc(C(F)(F)F)ccc4c3Br)C2)CC1 [Cpd 774]	848 nM		Kd (mutant MGL; [2]): 0.254 µM
O=C(c1ccccc1)N1CCN(C2CN(C(=O)c3ccc4c(ccn4-c4cc(F)ccc4F)c3)C2)CC1 [Cpd 578]	63 nM		Kd (mutant MGL; [3]): 0.195 µM
O=C(c1nccs1)N1CC(N2CCN(C(=O)c3cc4cc(C(F)(F)F)ccc4s3)C(c3ccccc3)C2)C1 (stereo not drawn) [Cpd 804]	1990 nM	0.105 µM	
O=C(c1ccc(-c2cccc(C(F)(F)F)c2)cc1)N1CCN(C2CN(C(=O)c3cc[nH]c3)C2)CC1 [Cpd 1243, 1-[1-(1H-Pyrrol-3-ylcarbonyl)azetidin-3-yl]-4-{[3′-(trifluoromethyl)biphenyl-4-yl]carbonyl}piperazine]	463 nM	0.033 µM	
O=C(c1ccc2[nH]c(-c3ccccc3)nc2c1)N1CC(N2CCN(C(=O)c3cscn3)CC2)C1 [Cpd 1299]	3860 nM	1.1 µM	
CC(C)(C)OC(=O)N1CCc2cccc(C(=O)N3CC(N4CCN(C(=O)c5cscn5)CC4)C3)c2C1 [Cpd 861]	9220 nM		Kd (mutant MGL; [5]): 2.63 µM
CCNC(=O)COc1ccc(C(=O)N2CC(N3CCN(C(=O)c4nccs4)CC3)C2)cc1 [Cpd 816]	2640 nM		Kd (mutant MGL; [2]): 2.84 µM
CCCCC/C=C\C/C=C\CCCCCCCC(=O)N1CC(N2CCN(C(=O)c3nccs3)CC2)C1 [Cpd 638]	189 nM	0.172 µM	Kd (mutant MGL; [2]): 0.264 µM
Cc1ccc2sc(C(=O)N3CC(N4CCN(C(=O)c5cscn5)CC4)C3)c(C(F)(F)F)c2c1 [Cpd 737, 1-(1-{[5-Methyl-3-(trifluoromethyl)-1-benzothiophen-2-yl]carbonyl}azetidin-3-yl)-4-(1,3-thiazol-4-ylcarbonyl)piperazine]	285 nM	0.031 µM	
Cc1c(Cc2ccc(C(F)(F)F)cc2)cccc1C(=O)N1CC(N2CCN(C(=O)c3cncs3)CC2)C1 [Cpd 1015]	777 nM	1.18 µM	
O=C(c1ccccc1)N1CCN(C2CN(C(=O)c3sc4cc(C(F)(F)F)ccc4c3C3CC3)C2)CC1 [Cpd 515]	455 nM		Kd (mutant MGL; [5]): 0.011 µM
O=C(c1ccc(Oc2ccc(Br)cn2)cc1)N1CC(N2CCN(C(=O)C(F)(F)F)CC2)C1 [Cpd 872]	14000 nM		Kd (mutant MGL; [6]): 10 µM
CN(C(=O)Cn1ccc2cc(C(=O)N3CC(N4CCN(C(=O)c5nccs5)CC4)C3)ccc21)c1ccccc1 [Cpd 1031]	111 nM		Kd (mutant MGL; [6]): 0.134 µM
Cc1nc2cc(Cl)ccc2cc1C(=O)N1CC(N2CCN(C(=O)c3nccs3)CC2)C1 [Cpd 826]	3290 nM		Kd (mutant MGL; [2]): 0.663 µM
Cn1cc(-c2cccc(F)c2)c2ccc(C(=O)N3CC(N4CCN(C(=O)c5nccs5)CC4)C3)cc21 [Cpd 1142]	29 nM		Kd (mutant MGL; [6]): 0.001 µM
O=C(c1ccc(-c2ccccc2)cc1)N1CCN(C2CN(C(=O)c3cc[nH]c3)C2)CC1 [Cpd 1292, 1-(Biphenyl-4-ylcarbonyl)-4-[1-(1H-pyrrol-3-ylcarbonyl)azetidin-3-yl]piperazine]	3070 nM	0.631 µM	
O=C(c1ccc2c(c1)[nH]c(=O)n2-c1ccccc1)N1CC(N2CCN(C(=O)c3cscn3)CC2)C1 [Cpd 939]	2360 nM	0.302 µM	
CC1(C)C=C(c2ccc(C(=O)N3CC(N4CCN(C(=O)c5nccs5)CC4)C3)cc2)CC(C)(C)O1 [Cpd 706]	103 nM	0.001 µM	
O=C(c1ccc2c(ccn2-c2ccc(F)cc2)c1)N1CC(N2CCN(C(=O)c3ncco3)CC2)C1 [Cpd 1426]	< 5 nM		Kd (mutant MGL; [3]): 0.029 µM
O=C(c1ccc(OCC(F)(F)F)cc1)N1CC(N2CCN(C(=O)c3nccs3)CC2)C1 [Cpd 730]	238 nM		Kd (mutant MGL; [2]): 0.146 µM
O=C(c1ccccc1)N1CCN(C2CN(C(=O)c3ccc4c(ccn4-c4ccc(Cl)cn4)c3)C2)CC1 [Cpd 629, 1-(5-Chloropyridin-2-yl)-5-({3-[4-(phenylcarbonyl)piperazin-1-yl]azetidin-1-yl}carbonyl)-1H-indole]	53 nM	0.145 µM	
Cc1c(Cc2ccc(C(F)(F)F)cc2)cccc1C(=O)N1CC(N2CCN(C(=O)c3nccs3)CC2)C1 [Cpd 1008]	< 5 nM	0.089 µM	
Cc1c(C(=O)N2CC(N3CCN(C(=O)c4ccccc4)CC3)C2)sc2cc(F)ccc12 [Cpd 516]	465 nM		Kd (mutant MGL; [5]): 0.04 µM
Cc1c(C(=O)N2CC(N3CCN(C(=O)c4ccccc4)CC3)C2)oc2ccc(F)cc12 [Cpd 1490]	> 16700 nM		Kd (mutant MGL; [5]): > 31.2 µM
Cc1c(C(=O)N2CC(N3CCN(C(=O)c4nccs4)CC3)C2)[nH]c2ccc(-c3ccnn3C)cc12 [Cpd 1205]	168 nM		Kd (mutant MGL; [3]): 0.008 µM
O=C(c1ccc(N2CCS(=O)(=O)CC2)cc1)N1CC(N2CCN(C(=O)c3nccs3)CC2)C1 [Cpd 843]	5530 nM	2.13 µM	
O=C(c1ccc2c(c1)[nH]c(=O)n2CCC(F)(F)F)N1CC(N2CCN(C(=O)c3nccs3)CC2)C1 [Cpd 938]	698 nM	0.091 µM	
O=C(c1ccc(Oc2ccc(Cl)cn2)cc1)N1CC(N2CCN(C(=O)c3cscn3)CC2)C1 [Cpd 757]	530 nM	0.781 µM	
O=C(c1ccc2nc(-c3ccccc3)oc2c1)N1CCN(C2CN(C(=O)c3nccs3)C2)CC1 [Cpd 1233]	343 nM		Kd (mutant MGL; [5]): 0.19 µM

Second part, led by results:

IC50 [1]	Kd (mutant MGL; [4])	SMILES	further results
153 nM		Cc1nn(-c2ccc(F)cc2)c2ncc(C(=O)N3CC(N4CCN(C(=O)c5nccs5)CC4)C3)cc12 [Cpd 1203]	Kd (mutant MGL; [2]): 0.015 µM
21 nM		Cc1ccnc(-n2ccc3cc(C(=O)N4CC(N5CCN(C(=O)c6nccs6)CC5)C4)ccc32)c1 [Cpd 1128, 1-(4-Methylpyridin-2-yl)-5-({3-[4-(1,3-thiazol-2-ylcarbonyl)piperazin-1-yl]azetidin-1-yl}carbonyl)-1H-indole]	Kd (mutant MGL; [2]): 0.018 µM
< 5 nM	0.025 µM	N#Cc1cc(-n2ccc3cc(C(=O)N4CC(N5CCN(C(=O)c6nccs6)CC5)C4)ccc32)ccc1F [Cpd 1417, 2-Fluoro-5-[5-({3-[4-(1,3-thiazol-2-ylcarbonyl)piperazin-1-yl]azetidin-1-yl}carbonyl)-1H-indol-1-yl]benzonitrile]	
12 nM		CC1(C)c2ccccc2-c2ccc(C(=O)N3CC(N4CCN(C(=O)c5nccs5)CC4)C3)cc21 [Cpd 952]	Kd (mutant MGL; [2]): 0.019 µM
< 5 nM	0.002 µM	O=C(c1ccc(Cc2cccc(C(F)(F)F)c2)cc1)N1CC(N2CCN(C(=O)c3nccs3)CC2)C1 [Cpd 995]	
1630 nM		Cc1nc2cc(C(=O)N3CC(N4CCN(C(=O)c5nccs5)CC4)C3)ccc2n1C1CCC(F)(F)CC1 [Cpd 798]	Kd (mutant MGL; [6]): 0.004 µM
8820 nM	1.76 µM	O=C(c1cc2ccc(C(F)(F)F)nc2o1)N1CCN(C2CN(C(=O)c3nccs3)C2)CC1 [Cpd 860]	
2700 nM	1 µM	O=C(c1cc2cc(Cl)ccc2o1)N1CC(N2CCN(C(=O)c3nccs3)CC2)C1 [Cpd 818]	
16 nM		O=C(c1ccc(-c2cccc(C(F)(F)F)c2)cc1)N1CC(N2CCN(C(=O)C3CC3(F)F)CC2)C1 (stereo not drawn) [Cpd 1112]	Kd (mutant MGL; [3]): 0.046 µM
118 nM	0.1 µM	O=C(c1ccc2[nH]c(-c3ccccc3)nc2c1)N1CC(N2CCN(C(=O)c3nccs3)CC2)C1 [Cpd 1194]	
10300 nM		Cc1nc2cc(C(=O)N3CC(N4CCN(C(=O)c5cscn5)CC4)C3)ccc2n1CCC(F)(F)F [Cpd 866]	Kd (mutant MGL; [6]): 0.824 µM
384 nM	0.04 µM	Cc1c(C(=O)N2CCN(C3CN(C(=O)c4cc[nH]c4)C3)CC2)sc2cc(C(F)(F)F)ccc12 [Cpd 748]	
978 nM		O=C(c1ccc2c(c1)ncn2CCC(F)(F)F)N1CC(N2CCN(C(=O)c3nccs3)CC2)C1 [Cpd 780]	Kd (mutant MGL; [6]): 0.128 µM
1480 nM	0.083 µM	O=C(c1ccc2c(c1)[nH]c(=O)n2C1CCC(F)(F)CC1)N1CC(N2CCN(C(=O)c3cscn3)CC2)C1 [Cpd 945]	
